Columns and labels:
[1] = tested on: P. aeruginosa lasI mutant biofilm; settings: flow-through chamber; resistance to 0.2% sodium dodecyl sulfate; cited from earlier work
[2] = tested on: quorum sensing signaling (Las system), QSC102 lacZ; assay: Two-strain (PAO1 / QSC102) screening assay for quorum sensing inhibiting compounds; type: cell-based, Pseudomonas aeruginosa; settings: β-galactosidase / blue color on X-gal
Method: In this example, the screening assay used two strains of P. aeruginosa: a wild type P. aeruginosa (PAO1) and QSC102, from Example 1 (see FIG. 8). This assay will detect inhibition of all aspects of quorum sensing signaling, e.g., signal generation and signal reception.
Microtiter plates are prepared by adding 200 μL Luria Broth (“LB”) agar, containing 0.008% 5-bromo-4-chloro-3-indolyl-β-D-galactose (X-gal) to each well. Overnight cultures of PAO1 and QSC102 are subcultured in LB to a starting absorbance at 600 nm (“A600”) of 0.05 and grown at 37° C to an A600 of 1.0. PAO1 is diluted 2.5×10^5-fold in LB and 5 μL of this is applied to the surface of the LB agar in each well. Plates are then dried in a laminar flow hood for 60 minutes. A tenfold dilution of QSC102 in LB is used to inoculate each well using a replicator. Plates are then sealed and incubated at 37° C for 40 hours. Growth and color development are evaluated visually and the data is recorded with a camera.
The test compound was present in a microtiter well and overlaid with LB agar and 5-bromo-4-chloro-3-indolyl-β-D-galactose (X-gal). Both strains were spotted on the agar in each well. […] Inhibition of signaling was evaluated qualitatively by the absence or weakening of the blue color development.

[3] = tested on: qsc110A&B (Pyoverdine synthetase D); assay: Acyl-HSL induction of β-galactosidase in qsc110A&B mutants; type: cell-based, Pseudomonas aeruginosa; settings: Class II, 3OC12-HSL 2 μM, C4-HSL 5 μM
qsc102 = assay: Acyl-HSL induction of β-galactosidase in qsc102 mutant; type: cell-based, Pseudomonas aeruginosa; settings: for Signal response (β-galactosidase activity with signal(s) divided by activity without added signals), maximum: qsc102, Class I, 3OC12-HSL 2 μM, C4-HSL 5 μM
Method: (§1) E. coli and P. aeruginosa were routinely grown in Luria-Bertani (LB) broth or LB agar (Sambrook, et al. (1989) Molecular Cloning: a Laboratory Manual. (Cold Spring Harbor Laboratory, Cold Spring Harbor, N.Y.)), supplemented with antimicrobial agents when necessary. The antimicrobial agents were used at the following concentrations: HgCl2, 15 μg/ml in agar and 7.5 μg/ml in broth; nalidixic acid 20 μg/ml; carbenicillin, 300 μg/ml; tetracycline, 50 μg/ml for P. aeruginosa and 20 μg/ml for E. coli; and gentamicin, 100 μg/ml for P. aeruginosa and 15 μg/ml for E. coli. Synthetic acyl-HSL concentrations were 2 μM for 3OC12-HSL and 5 μM for C4-HSL, and 5-bromo4-chloro-3-indolyl-β-D-galactopyranoside (X-Gal) was used at 50 μg/ml.
Patterns of Acyl-HSL Induction of β-galactosidase Activity in qsc Mutants. The pattern of β-galactosidase expression was examined in response to acyl-HSLs in each of 47 qsc mutants identified in the initial screen. Each mutant was grown in 1 ml of MOPS (50 mM, pH 7.0) buffered LB broth containing one, the other, both, or neither acyl-HSL signal in an 18 mm culture tube at 37° C. with shaking. A mid-logarithmic phase culture was used as an inoculum and initial optical densities (ODs) at 600 nm were 0.1. Growth was monitored as OD at 600 nm and β-galactosidase activity was measured in 0.1 ml samples taken at 0, 2, 5, and 9 hours after inoculation.
One assay used the P. aeruginosa strain QSC102 (Table 3), which responds to the presence of exogenous 3-oxo-C12-HSL by inducing β-galactosidase activity up to 400-fold (Example 1). Cells were grown in the presence of a minimal concentration of 3-oxo-C12-HSL and in the presence and absence of the test compound. If the test compound interferes with signal reception, β-galactosidase activity is reduced. Interference can be a result of any of several mechanisms. The simplest is, if the test compound prevents the 3oxo-C12-HSL from binding to LasR. Alternatively, the test compound may prevent LasR from binding to DNA or interacting productively with RNA polymerase.

[4] = tested on: qsc124A&B (Pyoverdine synthetase D); assay: Acyl-HSL induction of β-galactosidase in qsc124A&B mutants; type: cell-based, Pseudomonas aeruginosa; settings: Class III, 3OC12-HSL 2 μM, C4-HSL 5 μM
[5] = tested on: qsc132A&B (Unknown (B. pertusis)); assay: Acyl-HSL induction of β-galactosidase in qsc132A&B mutants; type: cell-based, Pseudomonas aeruginosa; settings: Class IV, 3OC12-HSL 2 μM, C4-HSL 5 μM
qsc115 = assay: Acyl-HSL induction of β-galactosidase in qsc115 mutant; type: cell-based, Pseudomonas aeruginosa; settings: qsc115, Class II; 3OC12-HSL 2 μM, C4-HSL 5 μM
[6] = tested on: qsc112A&B (Aculeacin A acylase); assay: Acyl-HSL induction of β-galactosidase in qsc112A&B mutants; type: cell-based, Pseudomonas aeruginosa; settings: Class II, 3OC12-HSL 2 μM, C4-HSL 5 μM
[7] = tested on: qsc135 (Cytochrome C precursor); assay: Acyl-HSL induction of β-galactosidase in qsc135 mutant; type: cell-based, Pseudomonas aeruginosa; settings: qsc135, Class IV; 3OC12-HSL 2 μM, C4-HSL 5 μM
[8] = tested on: qsc122A&B (Cytochrome p450); settings: Class III, 3OC12-HSL 2 μM, C4-HSL 5 μM
[9] = tested on: lasB-lacZ chromosomal fusion; assay: Acyl-HSL response of lasB-lacZ chromosomal fusion in P. aeruginosa PAO-MW1; type: cell-based, Pseudomonas aeruginosa; settings: late response
Method: as §1
A mutant strain, P. aeruginosa PAO-MW 10, which contains a lacZ reporter in the chromosomal lasB gene was constructed by introduction of pMW300 into PAO-MW1 by triparental mating as described above. Exconjugants resistant to gentamicin and sensitive to chloramphenicol were selected as potential recombinants.
Patterns of Acyl-HSL Induction of β-galactosidase Activity in qsc Mutants. The pattern of β-galactosidase expression was examined in response to acyl-HSLs in each of 47 qsc mutants identified in the initial screen. […] Growth was monitored as OD at 600 nm and β-galactosidase activity was measured in 0.1 ml samples taken at 0, 2, 5, and 9 hours after inoculation.

qsc114 = assay: Acyl-HSL induction of β-galactosidase in qsc114 mutant; type: cell-based, Pseudomonas aeruginosa; settings: qsc114, Class II; 3OC12-HSL 2 μM, C4-HSL 5 μM

Structure (SMILES): CCCCCCCCCC(=O)CC(=O)N[C@H]1CCOC1=O [3OC12-HSL, N-(3-oxododecanoyl) homoserine lactone]
- Biofilm phenotype after adding signal back to lasI mutant cells [1]: wild type phenotype was restored
- Response of the QSC102 lacZ fusion to the signal [2]: responded by turning blue
- Signal response (β-galactosidase activity with signal(s) divided by activity without added signals), maximum [3]: 10
- Signal response (β-galactosidase activity with signal(s) divided by activity without added signals), maximum (qsc102): 350
- Induction of β-galactosidase activity (qsc102; strain QSC102, exogenous signal): up to 400 fold
- Signal response (β-galactosidase activity with signal(s) divided by activity without added signals), maximum [4]: 35
- Signal response (β-galactosidase activity with signal(s) divided by activity without added signals), maximum [5]: 1
- Signal response (β-galactosidase activity with signal(s) divided by activity without added signals), maximum (qsc115): 4
- Signal response (β-galactosidase activity with signal(s) divided by activity without added signals), maximum [6]: 15
- Signal response (β-galactosidase activity with signal(s) divided by activity without added signals), maximum [7]: 3
- Signal response (β-galactosidase activity with signal(s) divided by activity without added signals), maximum [8]: 2
- Stimulation of lasB-lacZ fusion over background [9]: 3 fold
- Signal response (β-galactosidase activity with signal(s) divided by activity without added signals), maximum (qsc114): 9

Structure (SMILES): CCCC(=O)N[C@H]1CCOC1=O [C4-HSL, butanoyl-HSL]
- Response of the QSC102 lacZ fusion to the signal [2]: did not respond
- Signal response (β-galactosidase activity with signal(s) divided by activity without added signals), maximum [3]: 1
- Signal response (β-galactosidase activity with signal(s) divided by activity without added signals), maximum (qsc102): 1
- Signal response (β-galactosidase activity with signal(s) divided by activity without added signals), maximum [4]: 50
- Signal response (β-galactosidase activity with signal(s) divided by activity without added signals), maximum [5]: 1
- Signal response (β-galactosidase activity with signal(s) divided by activity without added signals), maximum (qsc115): 1
- Signal response (β-galactosidase activity with signal(s) divided by activity without added signals), maximum [6]: 1
- Signal response (β-galactosidase activity with signal(s) divided by activity without added signals), maximum [7]: 1
- Signal response (β-galactosidase activity with signal(s) divided by activity without added signals), maximum [8]: 10
- Signal response (β-galactosidase activity with signal(s) divided by activity without added signals), maximum (qsc114): 1
